Laboratory results reported in paper PMC5431807, “Structural Basis for Importin-α Binding of the Human Immunodeficiency Virus Tat” (Scientific Reports, 2017).
Entries after “also recorded” stand apart in the source; their conditions may differ.

Columns and labels:
[1] = molecular target: T1, importin-α (Mus musculus, UniProt P52293); experiment: X-ray crystal structure of Tat:NLS/CPP importin-α complex (PDB 5SVZ)
[2] = molecular target: T1, importin-α; experiment: Binding of importin-α to immobilised GST-Tat:NLS/CPP on glutathione column, SDS-PAGE; parameters: 6-His; made in house; The pET30 vector and Studier autoinduction imply E. coli (own inference); conditions: GST-Tat:NLS/CPP fusion immobilised on glutathione column, importin-α passed over
[3] = overall binding, 2.0 Å structure

Question: What does the source list for “GRKKRRQRRRAPQN [Tat:NLS/CPP, entire cell penetrating region of HIV-1 Tat, residues 48–61, recombinantly expressed as a GST-fusion, tag cleaved by TEV for crystallisation]”?
Answer: binding site on importin-α ([1]; 2.0 Å structure): binds to the major binding site of importin-α within ARM domains 2–4; also recorded: no NLS residues in the minor binding site; hydrogen bond distance ([1]; Tat Arg49 O – importin-α Asn235 ND2, PDBSum): 2.77 Å; hydrogen bond distance ([1]; Tat Arg52 NH1 – importin-α Arg106 O, PDBSum): 2.81 Å; hydrogen bond distance ([1]; Tat Arg52 NH1 – importin-α Leu104 O, PDBSum): 2.84 Å; hydrogen bond distance ([1]; Tat Arg52 NH2 – importin-α Arg106 O, PDBSum): 3.02 Å; hydrogen bond distance ([1]; Tat Arg52 NH2 – importin-α Glu107 O, PDBSum): 3.20 Å; hydrogen bond distance ([1]; Tat Arg53 N – importin-α Asn146 OD1, PDBSum): 2.89 Å; hydrogen bond distance ([1]; Tat Arg53 NH1 – importin-α Gln181 OE1, PDBSum): 2.49 Å; hydrogen bond distance ([1]; Tat Arg53 O – importin-α Asn146 ND2, PDBSum): 2.66 Å; hydrogen bond distance ([1]; Tat Arg53 O – importin-α Trp142 NE1, PDBSum): 3.24 Å; salt bridge distance ([1]; Tat Lys50 NZ – importin-α Asp192 OD1, salt bridge interaction, PDBSum): 2.89 Å; hydrogen bond distance ([1]; Tat Lys50 NZ – importin-α Gly150 O, PDBSum): 2.91 Å; hydrogen bond distance ([1]; Tat Lys50 NZ – importin-α Thr155 OG1, PDBSum): 2.80 Å; hydrogen bond distance ([1]; Tat Lys51 N – importin-α Asn188 OD1, PDBSum): 2.81 Å; hydrogen bond distance ([1]; Tat Lys51 O – importin-α Asn188 ND2, PDBSum): 2.79 Å; hydrogen bond distance ([1]; Tat Lys51 O – importin-α Trp184 NE1, PDBSum): 3.02 Å; buried surface area [1, 3]: 717 Å^2; number of salt bridge interactions [1, 3]: 1 salt bridge; binding to importin-α (column retention / complex formation) [2]: strong and direct interaction
